Results published in patent US10357431B2, “Process for the preparation of a pharmaceutical composition comprising a low soluble pharmaceutically active ingredient” (Lek Pharmaceuticals d.d., priority 2010, dated 2019).
Read-outs that look alike come from different tables or passages of the source.

Experiments:
[1] = Particle size distribution of ezetimibe (laser diffraction, e.g. Malvern); type: physicochemical
Text: In a particularly exemplified embodiment according to the present invention, the particle size distribution d(0.5) that is present after step (b) and prior to step (c), after step (c) and prior to step (d), and/or after step (d), corresponds essentially to or is smaller than the primary particle size distribution d(0.5) of the API that is used for providing the suspension of step (a). This (further) contributes to a further improved pharmaceutical composition or dosage form, respectively, as e.g. the dissolution profile and controllability are further enhanced. In general, the particle size distribution of a powder, or granular material, or particles e.g. dispersed in fluid, is a list of values or a mathematical function that defines the relative amounts of particles present, sorted according to size. The nomenclature describing the particle size distribution is herein referred to as “d(0.5)”. For example, a d(0.5) of 5 μm means that 50% (by volume) of the particles have a size less than or equal to 5 μm, as tested by any conventional method such as laser diffraction method (e.g. laser diffraction Malvern). When measuring the particle size distribution by laser diffraction Malvern, an appropriate amount of sample (usually a few drops of suspension) is put into a gently mixing chamber filled with water. From this chamber, the sample continuously flows through a measuring chamber and the particle size distribution is determined by laser diffraction. Within the meaning of the present invention, the term “particle size distribution d(0.5) corresponds essentially to or is smaller than” denotes that (i) the particle size distribution d(0.5) of the primary particles when measured after deagglomeration, i.e. after the high energy input treatment has been applied to the suspension containing the API particles, essentially corresponds to the particle size distribution d(0.5) of the primary particles that were used for providing the suspension of step (a); or (ii), alternatively, it denotes that the particle size distribution d(0.5) when measured after deagglomeration is smaller than the particle size distribution d(0.5) of the primary particles that were used for providing the suspension of step (a).
The particle size distribution d(0.5) of the primary API particles used for providing the suspension of step (a) in (A), (B) and (C) can be assessed by any method that is known to a person skilled in the art, such as by using laser diffraction method (e.g. Malvern Mastersizer, see above). As described elsewhere herein, said primary API particles may be present deagglomerated, however said particles may also be present in an agglomerated state. In the latter case, it is also possible to determine the particle size distribution d(0.5) by laser diffraction. If appropriate, it is preferred that the method for carrying out the first measurement corresponds to the method used for carrying out the second measurement.
The method according to the present invention is particularly useful for processing API particles having a particle size distribution d(0.5) that is relatively small, e.g. a particle size distribution d(0.5) where agglomeration is generated (critical particle size/particle size distribution). The critical particle size/particle size distribution for a selected API is known to a person skilled in the art. Further, said size/size distribution can be determined by any suitable method that is known to a person skilled in the art, such as by using SEM or laser diffraction. Usually SEM or more preferably disintegrated tablet suspension is recorded under a visual microscope and is processed with particle recognition software to obtain an estimation of particle size distribution. On SEM pictures, eventually occurring agglomerates are also visible. When using laser diffraction, a suspension of the API is transferred to the dispersing chamber containing water. […]

[2] = cited from earlier work
[3] = Example 3, Table 1, particle size after deagglomeration (suspension passed through ball mill)
[4] = Example 3, Table 1, starting particle size
[5] = Example 4, Table 2, particle size after deagglomeration (high energy rotor-stator mixer)
[6] = Example 4, Table 2, starting particle size
[7] = Example 6, Table 3, particle size after milling (rotor-stator mixer, then ball mill)
[8] = Example 6, Table 3, starting particle size
[9] = Example 7, Table 4, particle size after milling (rotor-stator mixer, then ball mill)
[10] = Example 7, Table 4, starting particle size

O=C1[C@H](CC[C@H](O)c2ccc(F)cc2)[C@@H](c2ccc(O)cc2)N1c1ccc(F)cc1 [ezetimibe]
size below which 50% of micronized ezetimibe particles were ([1]; Comparative Example 5, micronized starting ezetimibe): 3.9 micrometers
D(0.1) [1, 3]: 0.84 μm
D(0.5) [1, 3]: 2.98 μm
D(0.9) [1, 3]: 6.28 μm
D(0.1) [1, 4]: 0.30 μm
D(0.5) [1, 4]: 2.97 μm
D(0.9) [1, 4]: 6.87 μm
change of particle size distribution d(0.5) ([1]; Example 3, suspension passed through a ball mill): remained essentially unchanged
D(0.1) [1, 5]: 0.83 μm
D(0.5) [1, 5]: 2.54 μm
D(0.9) [1, 5]: 5.03 μm
D(0.1) [1, 6]: 0.30 μm
D(0.5) [1, 6]: 2.97 μm
D(0.9) [1, 6]: 6.87 μm
change of particle size distribution d(0.5) ([1]; Example 4, suspension mixed with high energy rotor-stator mixer): remained unchanged
D(0.1) [1, 7]: 0.24 μm
D(0.5) [1, 7]: 1.11 μm
D(0.9) [1, 7]: 4.35 μm
D(0.1) [1, 8]: 0.82 μm
D(0.5) [1, 8]: 3.29 μm
D(0.9) [1, 8]: 6.49 μm
D(0.1) [1, 9]: 0.63 μm
D(0.5) [1, 9]: 1.99 μm
D(0.9) [1, 9]: 5.49 μm
D(0.1) [1, 10]: 0.83 μm
D(0.5) [1, 10]: 2.76 μm
D(0.9) [1, 10]: 5.19 μm
solubility ([2]; in ethanol, methanol, and acetone): freely to very soluble
solubility ([2]; in water): particularly poorly soluble
